Reference: patent US20240166681A1, “3'3' CYCLIC DINUCLEOTIDES CONTAINING ISONUCLEOTIDIC UNITS” (INSTITUTE OF ORGANIC CHEMISTRY AND BIOCHEMISTRY AS CR, V. …, priority 2021, published 2024)

The compounds below were run against WT STING (Homo sapiens, UniProt Q86WV6, H232R) (assay: Digitonin assay using 293T wtSTING-FL reporter cells). Conditions: 293T wtSTING-FL cells, digitonin buffer 30 min, then 5 h, ISRE firefly luciferase reporter.
Type: cell-based
Set-up: host or cells: 293T (ATCC CRL-3216), stably transfected
Source text: […] […] (SEQ ID NO:2) containing four interferon-sensitive response elements (ISRE) were synthesized by Sigma Aldrich (Czech Republic, Prague). The oligonucleotides were mixed in equal molar amounts, hybridized, and cleaved by restriction endonucleases HindIII (cat. #.R0104S, NEB, Ipswich, USA) and BglII (cat. #R0144S, NEB, Ipswich, USA). Ultimately, they were ligated into plasmid pGL4.27 (cat. #E6651, Promega, Madison, USA) linearized with the same enzymes. As result the sequence with four ISRE sites was placed upstream of the minimum promoter of firefly luciferase reporter gene.
293T cells (cat. #CRL-3216, ATCC, Manassas, USA) were seeded a day before transfection at density 125,000 cells per cm^2 onto poly-D-lysine (cat. #P6407, Sigma Aldrich, Czech Republic) coated six well plates in antibiotic free DMEM with high glucose (cat. #D5796, Sigma Aldrich, Czech Republic) supplemented with 10% heat inactivated FBS (cat. #S1520, Biowest, Riverside, USA). On the day of transfection, 2.5 μg of the plasmid pUNO1-hSTING-WT (cat. #punol-hstingwt, InvivoGen, San Diego, USA,) encoding human wild type STING (WT STING) was diluted in 125 μL OptiMEM medium (cat. #31985062, ThermoFisher, Waltham, USA) and mixed with 125 μL of the same medium containing 12.5 μL of Lipofectamine 2000 (cat. #11668019, ThermoFisher, Waltham, USA). After 5 minutes incubation at room temperature (RT), 250 μL of the mixture was added dropwise to the cells in one well. Cells were incubated 36 hours at 37° C. with 5% CO2, and then detached with 0.05% Trypsin and 0.22 g/L EDTA (both cat. #L0941, Biowest, Riverside, USA).
Transfected cells were seeded onto poly-D-lysine coated six well plates at density 50,000 cells per 1 cm^2 in DMEM medium with high glucose containing 10% heat inactivated FBS, 30 μg/mL blasticidin (cat. #ant-b1-05, InvivoGen, San Diego, USA), 0.06 mg/ml Penicillin G and 0.1 mg/ml Streptomycin Sulfate (both cat. #. L0018, Biowest, Riverside, USA). The medium was replenished every 3-4 days until visible colonies of cells resistant to blasticidin were formed.
Blasticidin resistant cells stably expressing WT STING were further transfected with […] plasmid following the same procedure as described above. The transfected cells were selected for the resistance to 300 μg/mL hygromycin (cat. #. 10687010, ThermoFisher, Waltham, USA) in DMEM with high glucose containing 10% heat inactivated FBS, 30μg/mL blasticidin, 0.06 mg/ml Penicillin G and 0.1 mg/ml Streptomycin Sulfate. Homogeneous culture of stably double transfected cells was prepared by limiting dilution of cells in 96 well plates and wells with cells were selected that originated from a single cell. These cells were expanded, and expression of WT STING was confirmed by western blot using monoclonal mouse anti STING antibodies (cat. #. MAB7169, 1:1000 dilution; […]. Genomic DNA from the transfected cells was amplified with primers pUNO1_Seq_F ([…]) (SEQ ID NO:3) and pUNO1_Seq_R ([…]) (SEQ ID NO:4) that were complementary to pUNO1 plasmid and the presence of WT STING gene in the transfected cells was confirmed by DNA sequencing.
293T wtSTING-FL cells were seeded at density of 250,000 cells per cm^2 onto 96 well poly-D-lysine coated plates in 100 μl DMEM with high glucose supplemented with 10% heat inactivated FBS. The medium was removed next day and three fold serial dilutions of compounds in Digitonin buffer containing 50 mmol·l^−1 HEPES (cat. #H3375, Sigma Aldrich, Czech Republic) pH 7.0, 100 mmol·l^−1 KCl, 3 mmol·l^−1 MgCl2, 0.1 mmol.·l^−1 DTT (cat. #D0632, Sigma Aldrich, Czech Republic), 85 mmol·l^−1 Sucrose (cat. #S7903, Sigma Aldrich, Czech Republic), 0.2% BSA (cat. #A2153, Sigma Aldrich, Czech Republic), 1 mmol·l^−1 ATP (cat. #A1852, Sigma Aldrich, Czech Republic), 0.1 mmol·l^−1 GTP (cat. #G8877, Sigma Aldrich, Czech Republic), and 10 μg/mL Digitonin A (cat. #D141, Sigma Aldrich, Czech Republic) were added to the cells. […]

Sequence of WT STING (Q86WV6 whole entry H232R): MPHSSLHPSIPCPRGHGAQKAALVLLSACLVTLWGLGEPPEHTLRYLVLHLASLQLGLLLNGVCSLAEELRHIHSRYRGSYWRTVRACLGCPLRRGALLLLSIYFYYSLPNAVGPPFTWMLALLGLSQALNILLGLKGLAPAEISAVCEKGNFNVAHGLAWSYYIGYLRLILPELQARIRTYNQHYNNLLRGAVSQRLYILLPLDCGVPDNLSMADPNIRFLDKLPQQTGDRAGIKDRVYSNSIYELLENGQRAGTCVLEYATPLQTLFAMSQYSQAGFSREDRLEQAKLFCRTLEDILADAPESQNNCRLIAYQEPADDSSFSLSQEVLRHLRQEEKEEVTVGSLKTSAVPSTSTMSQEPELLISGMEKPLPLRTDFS

Row | Compound | EC50
1 | Nc1nc2c(ncn2[C@@H]2O[C@@H]3COP(=O)(O)O[C@H]4[C@H](n5cnc6c(N)ncnc65)CO[C@@H]4COP(=O)(O)O[C@H]3[C@H]2F)c(=O)[nH]1 [Compound 24, (1S,6R,8R,9R,10R,15R,18R)-8-(2-amino-6-oxo-6,9-dihydro-1H-purin-9-yl)-18-(6-amino-9H-purin-9-yl)-9-fluoro-3,12-dihydroxy-2,4,7,11,13,16-hexaoxa-3λ^5,12λ^5-diphosphatricyclo[13.3.0.0^6,10]octadecane-3,12-dione] | 30 nM
2 | Nc1ncnc2c1ncn2[C@@H]1CO[C@@H]2COP(=O)(O)O[C@H]3[C@@H](F)[C@H](n4cnc5c(N)ncnc54)O[C@@H]3COP(=O)(O)O[C@@H]12 [Compound 28, (1S,6R,8R,9R,10R,15R,18R)-8,18-bis(6-amino-9H-purin-9-yl)-9-fluoro-3,12-dihydroxy-2,4,7,11,13,16-hexaoxa-3λ^5,12λ^5-diphosphatricyclo[13.3.0.0^6,10]octadecane-3,12-dione] | 20 nM
3 | Nc1ncnc2c1ncn2[C@@H]1CC[C@@H]2COP(=O)(O)O[C@H]3[C@@H](F)[C@H](n4cnc5c(N)ncnc54)O[C@@H]3COP(=O)(O)O[C@H]21 [Compound 34, (1R,6R,8R,9R,10R,15R,18R)-8,18-bis(6-amino-9H-purin-9-yl)-9-fluoro-3,12-dihydroxy-2,4,7,11,13-pentaoxa-3λ^5,12λ^5-diphosphatricyclo[13.3.0.0^6,10]octadecane-3,12-dione] | 450 nM
4 | Nc1ncnc2c1ncn2[C@@H]1CO[C@@H]2COP(=O)(O)O[C@H]3C[C@H](n4cnc5c(N)ncnc54)O[C@@H]3COP(=O)(O)O[C@@H]12 [Compound 50, (1S,6R,8R,10S,15R,18R)-8,18-bis(6-amino-9H-purin-9-yl)-3,12-dihydroxy-2,4,7,11,13,16-hexaoxa-3λ^5,12λ^5-diphosphatricyclo[13.3.0.0^6,10]octadecane-3,12-dione] | 280 nM
5 | Nc1nc2c(ncn2[C@@H]2CO[C@@H]3COP(=O)(O)O[C@H]4[C@@H](F)[C@H](n5cnc6c(N)ncnc65)O[C@@H]4COP(=O)(O)O[C@@H]23)c(=O)[nH]1 [Compound 51, (1S,6R,8R,9R,10R,15R,18R)-18-(2-amino-6-oxo-6,9-dihydro-1H-purin-9-yl)-8-(6-amino-9H-purin-9-yl)-9-fluoro-3,12-dihydroxy-2,4,7,11,13,16-hexaoxa-3λ^5,12λ^5-diphosphatricyclo[13.3.0.0^6,10]octadecane-3,12-dione] | 80 nM
6 | Nc1nc2c(ncn2[C@@H]2CO[C@@H]3COP(=O)(O)O[C@H]4[C@H](n5cnc6c(N)ncnc65)CO[C@@H]4COP(=O)(O)O[C@@H]23)c(=O)[nH]1 [Compound 52, (1S,6R,9R,10S,15R,18R)-9-(2-amino-6-oxo-6,9-dihydro-1H-purin-9-yl)-18-(6-amino-9H-purin-9-yl)-3,12-dihydroxy-2,4,7,11,13,16-hexaoxa-3λ^5,12λ^5-diphosphatricyclo[13.3.0.0^6,10]octadecane-3,12-dione] | 1350 nM
7 | Nc1nc2c(ncn2[C@@H]2CO[C@@H]3COP(=O)(O)O[C@H]4C[C@H](n5cnc6c(N)ncnc65)O[C@@H]4COP(=O)(O)O[C@@H]23)c(=O)[nH]1 [Compound 53, (1S,6R,8R,10S,15R,18R)-18-(2-amino-6-oxo-6,9-dihydro-1H-purin-9-yl)-8-(6-amino-9H-purin-9-yl)-3,12-dihydroxy-2,4,7,11,13,16-hexaoxa-3λ^5,12λ^5-diphosphatricyclo[13.3.0.0^6,10]octadecane-3,12-dione] | 280 nM
8 | Nc1ncnc2c1ncn2[C@@H]1CO[C@@H]2COP(=O)(S)O[C@H]3[C@@H](F)[C@H](n4cnc5c(N)ncnc54)O[C@@H]3COP(=O)(S)O[C@@H]12 (stereo partly drawn) [Compound 54, (1S,6R,8R,9R,10R,15R,18R)-8,18-bis(6-amino-9H-purin-9-yl)-9-fluoro-3,12-disulfanyl-2,4,7,11,13,16-hexaoxa-3λ^5,12λ^5-diphosphatricyclo[13.3.0.0^6,10]octadecane-3,12-dione] | 10 nM
9 | Nc1ncnc2c1ncn2[C@@H]1CO[C@@H]2COP(=O)(S)O[C@H]3[C@@H](F)[C@H](n4cnc5c(N)ncnc54)O[C@@H]3COP(=O)(S)O[C@@H]12 (stereo partly drawn) [Compound 55, (1S,6R,8R,9R,10R,15R,18R)-8,18-bis(6-amino-9H-purin-9-yl)-9-fluoro-3,12-disulfanyl-2,4,7,11,13,16-hexaoxa-3λ^5,12λ^5-diphosphatricyclo[13.3.0.0^6,10]octadecane-3,12-dione] | 10 nM
